Data: patent publication US20130344026A1, “Dimeric Smac Mimetics” (priority 2009, published 2013)

What follows are compounds tested on HCC461 (assay: cell viability assay in HCC461, compound alone). Conditions: HCC461, HCC461 cells, compound alone; read-out: IC50 (uM) in cell viability assay in HCC461.
Assay type: cell-based
CN[C@@H](C)C(=O)N[C@H](C(=O)N1C[C@@H](NC(=O)c2cccc(C(=O)N[C@H]3C[C@@H](C(=O)N[C@@H]4CCCc5ccccc54)N(C(=O)[C@@H](NC(=O)[C@H](C)NC)C4CCCCC4)C3)c2)C[C@H]1C(=O)N[C@@H]1CCCc2ccccc21)C1CCCCC1 [Compound P3-53] was tested, and the IC50 was 0.01 µM. Compound CN[C@@H](C)C(=O)N[C@H](C(=O)N1C[C@@H](NC(=O)c2cc(N)cc(C(=O)N[C@H]3C[C@@H](C(=O)N[C@@H]4CCCc5ccccc54)N(C(=O)[C@@H](NC(=O)[C@H](C)NC)C4CCCCC4)C3)c2)C[C@H]1C(=O)N[C@@H]1CCCc2ccccc21)C1CCCCC1 [Compound P3-54] has an IC50 of 0.051 µM. In the case of CN[C@@H](C)C(=O)N[C@H](C(=O)N1C[C@@H](NC(=O)c2cccc(C(=O)N[C@H]3C[C@@H](C(=O)N[C@@H]4CCCc5ccccc54)N(C(=O)[C@@H](NC(=O)[C@H](C)NC)C(C)C)C3)c2)C[C@H]1C(=O)N[C@@H]1CCCc2ccccc21)C(C)C [Compound P3-55], the IC50 is reported as 0.017 µM. CN[C@@H](C)C(=O)N[C@H](C(=O)N1C[C@@H](NC(=O)c2cc(N)cc(C(=O)N[C@H]3C[C@@H](C(=O)N[C@@H]4CCCc5ccccc54)N(C(=O)[C@@H](NC(=O)[C@H](C)NC)C(C)C)C3)c2)C[C@H]1C(=O)N[C@@H]1CCCc2ccccc21)C(C)C [Compound P3-56] gave an IC50 of 0.091 µM. With CN[C@@H](C)C(=O)N[C@H](C(=O)N1C[C@@H](NC(=O)c2cc(N)cc(C(=O)N[C@H]3C[C@@H](C(=O)NC4c5ccccc5-c5ccccc54)N(C(=O)[C@@H](NC(=O)[C@H](C)NC)C(C)(C)C)C3)c2)C[C@H]1C(=O)NC1c2ccccc2-c2ccccc21)C(C)(C)C [Compound P3-61] the IC50 was 0.02 µM. With C#CC[C@H](NC(=O)[C@H](C)NC)C(=O)N1C[C@@H](NC(=O)c2cc(N)cc(C(=O)N[C@H]3C[C@@H](C(=O)N[C@@H]4CCCc5ccccc54)N(C(=O)[C@H](CC#C)NC(=O)[C@H](C)NC)C3)c2)C[C@H]1C(=O)N[C@@H]1CCCc2ccccc21 [Compound P3-62] the IC50 was 0.198 µM. With CN[C@@H](C)C(=O)N[C@H](C(=O)N1C[C@@H](NC(=O)c2cc(C(=O)N[C@H]3C[C@@H](C(=O)NC4c5ccccc5-c5ccccc54)N(C(=O)[C@@H](NC(=O)[C@H](C)NC)C(C)(C)C)C3)[nH]n2)C[C@H]1C(=O)NC1c2ccccc2-c2ccccc21)C(C)(C)C [Compound P3-63] the IC50 was 0.016 µM. CN[C@@H](C)C(=O)N[C@H](C(=O)N1C[C@@H](NC(=O)c2cc(C(=O)N[C@H]3C[C@@H](C(=O)NC(c4ccccc4)c4ccccc4)N(C(=O)[C@@H](NC(=O)[C@H](C)NC)C(C)(C)C)C3)[nH]n2)C[C@H]1C(=O)NC(c1ccccc1)c1ccccc1)C(C)(C)C [Compound P3-64] gave an IC50 of 0.008 µM. Work on CN[C@@H](C)C(=O)N[C@H](C(=O)N[C@@H](CCCCCC[C@H](NC(=O)[C@@H](NC(=O)[C@H](C)NC)C(C)(C)C)C(=O)N[C@@H]1CCCc2ccccc21)C(=O)N[C@@H]1CCCc2ccccc21)C(C)(C)C [Compound P3-65] yielded an IC50 of 0.002 µM.

Same assay, conditions: HCC461 cells, compound alone; read-out: IC50 (uM) in cell viability assay in HCC461
Work on CN[C@@H](C)C(=O)N[C@H](C(=O)N1C[C@@H](NC(=O)c2cccc(C(=O)N[C@H]3C[C@@H](C(=O)NC4CCCC5CCCCC54)N(C(=O)[C@@H](NC(=O)[C@H](C)NC)C(C)(C)C)C3)c2)C[C@H]1C(=O)NC1CCCC2CCCCC21)C(C)(C)C (stereo partly shown) [Compound P3-57] yielded an IC50 of 1.69 µM. CN[C@@H](C)C(=O)N[C@H](C(=O)N1C[C@@H](NC(=O)c2cccc(C(=O)N[C@H]3C[C@@H](C(=O)NC4CCCC5CCCCC54)N(C(=O)[C@@H](NC(=O)[C@H](C)NC)C(C)(C)C)C3)c2)C[C@H]1C(=O)NC1CCCC2CCCCC21)C(C)(C)C (stereo partly shown) [Compound P3-58] showed an IC50 of 0.211 µM. Work on CN[C@@H](C)C(=O)N[C@H](C(=O)N1C[C@@H](NC(=O)c2cccc(C(=O)N[C@H]3C[C@@H](C(=O)NC4CCCC5CCCCC54)N(C(=O)[C@@H](NC(=O)[C@H](C)NC)C(C)(C)C)C3)c2)C[C@H]1C(=O)NC1CCCC2CCCCC21)C(C)(C)C (stereo partly shown) [Compound P3-59] yielded an IC50 of 0.45 µM. Work on CN[C@@H](C)C(=O)N[C@H](C(=O)N1C[C@@H](NC(=O)c2cccc(C(=O)N[C@H]3C[C@@H](C(=O)NC4CCCC5CCCCC54)N(C(=O)[C@@H](NC(=O)[C@H](C)NC)C(C)(C)C)C3)c2)C[C@H]1C(=O)NC1CCCC2CCCCC21)C(C)(C)C (stereo partly shown) [Compound P3-60] yielded an IC50 of 0.311 µM.
